From PMC4914440 (Pharmacological research, 2016)
Where “and” joins values, the source holds several entries; their conditions need not be identical. Equal entries are not always repeated.

Tests used:
[1] = cited from earlier work
5-HT6 receptor [2] = molecular target: T1, 5-HT6 receptor (Rattus norvegicus, UniProt P31388); assay: cAMP-Glo assay of Gs signaling, HeLa cells; assay type: cell-based; conditions: 30 μM
h5-HT1A = conditions: 10 μM efavirenz; cited from earlier work
[3] = test system: serotonin transporter (SERT); conditions: 10 μM; cited from earlier work
5-HT2C receptor [4] = molecular target: T2, 5-HT2C receptor (Homo sapiens, UniProt P28335); conditions: serum free
T2 sequence (P28335 33-458): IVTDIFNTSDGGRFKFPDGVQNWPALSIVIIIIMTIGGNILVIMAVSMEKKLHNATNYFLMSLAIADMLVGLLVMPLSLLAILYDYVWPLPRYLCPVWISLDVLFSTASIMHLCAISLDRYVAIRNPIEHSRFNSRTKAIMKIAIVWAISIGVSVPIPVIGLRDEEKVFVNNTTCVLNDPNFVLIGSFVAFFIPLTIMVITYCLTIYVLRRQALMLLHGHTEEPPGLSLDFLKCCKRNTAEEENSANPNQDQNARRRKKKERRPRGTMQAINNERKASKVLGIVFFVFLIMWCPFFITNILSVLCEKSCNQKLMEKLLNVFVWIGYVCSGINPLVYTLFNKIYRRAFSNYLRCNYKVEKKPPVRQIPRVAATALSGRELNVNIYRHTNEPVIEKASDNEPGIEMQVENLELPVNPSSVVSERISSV

untransfected HeLa cells = assay: cAMP-Glo assay, control cells; assay type: cell-based, human; conditions: efavirenz 30 μM, clozapine 30 μM, 5-HT 1 μM
[5] = cited from earlier work; remark: listed apart in the source
NMDA receptors = conditions: 10 μM; cited from earlier work
gp5-HT4 = gp5-HT4 (Cavia porcellus, UniProt O70528); conditions: 10 μM efavirenz
5-HT2A receptor [6] = molecular target: T3, 5-HT2A receptor (Homo sapiens, UniProt P28223); assay: Intracellular calcium assay of Gq signaling, HEK293 cells; assay type: cell-based
DAT = conditions: cited from earlier work
M1 muscarinic receptor = M1 muscarinic receptor (Homo sapiens, UniProt P11229)
5-HT6 receptor [7] = molecular target: T1, 5-HT6 receptor; assay: Competition radioligand binding, concentration-response
h5-HT2C = molecular target: T4, h5-HT2C (Homo sapiens, UniProt P28335); conditions: 10 μM efavirenz; cited from earlier work
T4 sequence (P28335 33-458): T2 sequence (P28335 33-458)

[8] = within 1 hr of i.p. dose of 15 mg/kg; cited from earlier work
M3 muscarinic receptor = M3 muscarinic receptor (Homo sapiens, UniProt P20309); assay: Intracellular calcium assay, untransfected HEK293 cells with endogenous receptor; assay type: cell-based
MAO-A = MAO-A (Homo sapiens, UniProt P21397); assay: Inhibition of monoamine oxidase A activity, kynuramine substrate; assay type: biochemical; conditions: 10 μM
[9] = cited from earlier work; remark: listed apart in the source
GABAA receptor = conditions: cited from earlier work
h5-HT2A = h5-HT2A (Homo sapiens, UniProt P28223); conditions: 10 μM efavirenz; cited from earlier work
5-HT2A receptor [10] = molecular target: T3, 5-HT2A receptor; assay: Competition radioligand binding, concentration-response
[11] = cited from earlier work; remark: listed apart in the source
h5-HT2B = h5-HT2B (Homo sapiens, UniProt P41595); assay: Radioligand displacement by a fixed drug concentration, [3H]LSD; conditions: 10 μM efavirenz
[12] = Estimated brain concentration, authors' calculation
5-HT2C receptor [13] = molecular target: T2, 5-HT2C receptor; assay: Competition radioligand binding, concentration-response
[14] = cited from earlier work; remark: listed apart in the source
5-HT2A receptor [15] = molecular target: T3, 5-HT2A receptor; assay: Prolonged; assay type: cell-based; conditions: 3 day exposure to 30 μM
5-HT2A receptor [16] = molecular target: T3, 5-HT2A receptor; assay: Prolonged; assay type: cell-based; conditions: for antagonism of 100 nM 5-HT calcium response: 10 μM efavirenz
h5-HT7 = h5-HT7 (Homo sapiens, UniProt P34969); assay: Radioligand displacement by a fixed drug concentration, [3H]LSD; conditions: 10 μM efavirenz
[17] = test system: endogenous β-adrenergic receptor; assay: cAMP-Glo assay, untransfected HeLa cells stimulated with; assay type: cell-based, human
muscarinic receptors = conditions: 10 μM; cited from earlier work

T1 sequence (P31388 whole entry): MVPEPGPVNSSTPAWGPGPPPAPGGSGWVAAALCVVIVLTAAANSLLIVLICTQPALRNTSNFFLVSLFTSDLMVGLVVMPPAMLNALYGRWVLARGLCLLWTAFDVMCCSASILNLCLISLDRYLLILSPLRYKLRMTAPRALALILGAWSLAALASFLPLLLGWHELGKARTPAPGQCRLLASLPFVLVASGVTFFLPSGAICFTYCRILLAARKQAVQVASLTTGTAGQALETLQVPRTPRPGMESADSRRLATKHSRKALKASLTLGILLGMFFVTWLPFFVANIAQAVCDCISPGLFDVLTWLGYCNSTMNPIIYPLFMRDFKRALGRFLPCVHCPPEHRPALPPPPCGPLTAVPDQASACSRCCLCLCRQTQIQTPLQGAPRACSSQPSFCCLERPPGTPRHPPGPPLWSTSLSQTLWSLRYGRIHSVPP
Chain of M3 muscarinic receptor (P20309 whole entry): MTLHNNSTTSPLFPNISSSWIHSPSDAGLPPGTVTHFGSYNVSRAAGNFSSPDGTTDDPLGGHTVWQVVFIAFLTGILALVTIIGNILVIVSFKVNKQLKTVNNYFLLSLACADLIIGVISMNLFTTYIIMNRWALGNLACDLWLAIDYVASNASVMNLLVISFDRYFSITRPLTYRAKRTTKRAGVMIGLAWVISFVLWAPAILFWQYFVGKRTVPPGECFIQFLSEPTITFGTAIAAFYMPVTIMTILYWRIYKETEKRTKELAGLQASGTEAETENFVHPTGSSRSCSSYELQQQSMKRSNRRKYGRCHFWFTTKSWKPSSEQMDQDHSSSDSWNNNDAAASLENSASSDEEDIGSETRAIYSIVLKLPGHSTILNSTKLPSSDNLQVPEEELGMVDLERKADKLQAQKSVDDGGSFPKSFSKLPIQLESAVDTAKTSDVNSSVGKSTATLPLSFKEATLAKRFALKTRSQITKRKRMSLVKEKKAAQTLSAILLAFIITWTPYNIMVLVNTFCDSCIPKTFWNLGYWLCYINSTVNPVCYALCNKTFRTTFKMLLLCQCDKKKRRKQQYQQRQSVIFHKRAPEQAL
T3 sequence (P28223 whole entry): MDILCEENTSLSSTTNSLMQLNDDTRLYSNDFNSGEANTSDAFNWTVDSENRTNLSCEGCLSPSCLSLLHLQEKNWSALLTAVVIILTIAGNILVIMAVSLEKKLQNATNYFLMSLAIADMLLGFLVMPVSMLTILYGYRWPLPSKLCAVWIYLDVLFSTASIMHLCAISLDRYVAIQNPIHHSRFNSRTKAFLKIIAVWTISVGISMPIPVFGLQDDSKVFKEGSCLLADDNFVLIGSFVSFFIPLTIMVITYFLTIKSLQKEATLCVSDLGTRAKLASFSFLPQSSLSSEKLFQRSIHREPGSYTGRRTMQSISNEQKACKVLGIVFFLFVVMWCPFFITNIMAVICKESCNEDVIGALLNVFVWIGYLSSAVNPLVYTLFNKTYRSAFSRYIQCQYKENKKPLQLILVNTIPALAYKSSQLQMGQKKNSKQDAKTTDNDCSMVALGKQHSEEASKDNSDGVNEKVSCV
Chain of M1 muscarinic receptor (P11229 whole entry): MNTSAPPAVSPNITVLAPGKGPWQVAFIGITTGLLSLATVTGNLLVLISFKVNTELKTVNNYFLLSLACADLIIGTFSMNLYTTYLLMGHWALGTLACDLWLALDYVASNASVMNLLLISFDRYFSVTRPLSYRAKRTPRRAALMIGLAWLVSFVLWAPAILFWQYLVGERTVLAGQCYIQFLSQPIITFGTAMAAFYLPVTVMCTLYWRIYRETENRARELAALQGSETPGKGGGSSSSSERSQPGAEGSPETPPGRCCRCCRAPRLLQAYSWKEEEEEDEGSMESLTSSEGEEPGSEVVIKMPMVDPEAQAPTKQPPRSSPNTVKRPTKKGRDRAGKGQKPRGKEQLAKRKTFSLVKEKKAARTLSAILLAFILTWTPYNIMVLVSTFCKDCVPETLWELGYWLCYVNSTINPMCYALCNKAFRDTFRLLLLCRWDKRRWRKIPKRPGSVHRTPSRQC
Chain of MAO-A (P21397 whole entry): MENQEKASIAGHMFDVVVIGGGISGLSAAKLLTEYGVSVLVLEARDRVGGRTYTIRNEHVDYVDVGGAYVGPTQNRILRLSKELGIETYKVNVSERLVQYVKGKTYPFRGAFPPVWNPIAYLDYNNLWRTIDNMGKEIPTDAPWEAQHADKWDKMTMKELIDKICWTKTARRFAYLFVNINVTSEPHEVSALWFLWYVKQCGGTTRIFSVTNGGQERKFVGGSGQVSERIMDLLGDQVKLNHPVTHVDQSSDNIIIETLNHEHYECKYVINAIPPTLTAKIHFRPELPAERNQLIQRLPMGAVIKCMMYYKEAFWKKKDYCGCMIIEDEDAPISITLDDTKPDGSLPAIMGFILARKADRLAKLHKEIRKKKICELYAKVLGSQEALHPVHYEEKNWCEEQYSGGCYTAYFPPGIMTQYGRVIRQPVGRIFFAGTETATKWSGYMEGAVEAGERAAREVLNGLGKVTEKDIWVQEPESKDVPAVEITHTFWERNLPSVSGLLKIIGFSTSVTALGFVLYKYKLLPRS
Chain of gp5-HT4 (O70528 whole entry): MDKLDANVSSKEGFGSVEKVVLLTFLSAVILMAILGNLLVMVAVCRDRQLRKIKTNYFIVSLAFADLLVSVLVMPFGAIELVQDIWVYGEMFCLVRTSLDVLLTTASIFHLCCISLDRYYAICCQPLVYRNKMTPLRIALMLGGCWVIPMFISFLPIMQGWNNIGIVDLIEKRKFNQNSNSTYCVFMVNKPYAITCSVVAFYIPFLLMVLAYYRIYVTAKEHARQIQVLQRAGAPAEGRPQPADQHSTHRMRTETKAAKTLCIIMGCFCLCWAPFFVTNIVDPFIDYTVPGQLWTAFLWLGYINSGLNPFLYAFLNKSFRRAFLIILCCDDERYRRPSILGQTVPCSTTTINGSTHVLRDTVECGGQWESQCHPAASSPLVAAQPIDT
Chain of h5-HT7 (P34969 whole entry): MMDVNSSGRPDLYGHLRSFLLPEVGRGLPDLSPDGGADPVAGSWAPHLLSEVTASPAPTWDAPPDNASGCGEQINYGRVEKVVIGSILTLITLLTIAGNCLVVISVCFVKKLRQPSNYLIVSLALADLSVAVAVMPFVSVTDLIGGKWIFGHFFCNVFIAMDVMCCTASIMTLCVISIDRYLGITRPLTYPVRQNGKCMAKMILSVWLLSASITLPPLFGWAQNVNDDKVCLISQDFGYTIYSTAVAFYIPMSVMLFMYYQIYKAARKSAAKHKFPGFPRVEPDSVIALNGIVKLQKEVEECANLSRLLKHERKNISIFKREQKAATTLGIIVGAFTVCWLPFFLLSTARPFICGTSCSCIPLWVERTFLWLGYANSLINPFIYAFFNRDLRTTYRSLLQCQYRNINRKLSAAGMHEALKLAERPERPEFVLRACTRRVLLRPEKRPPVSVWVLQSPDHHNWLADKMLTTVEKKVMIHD
Chain of h5-HT2B (P41595 whole entry): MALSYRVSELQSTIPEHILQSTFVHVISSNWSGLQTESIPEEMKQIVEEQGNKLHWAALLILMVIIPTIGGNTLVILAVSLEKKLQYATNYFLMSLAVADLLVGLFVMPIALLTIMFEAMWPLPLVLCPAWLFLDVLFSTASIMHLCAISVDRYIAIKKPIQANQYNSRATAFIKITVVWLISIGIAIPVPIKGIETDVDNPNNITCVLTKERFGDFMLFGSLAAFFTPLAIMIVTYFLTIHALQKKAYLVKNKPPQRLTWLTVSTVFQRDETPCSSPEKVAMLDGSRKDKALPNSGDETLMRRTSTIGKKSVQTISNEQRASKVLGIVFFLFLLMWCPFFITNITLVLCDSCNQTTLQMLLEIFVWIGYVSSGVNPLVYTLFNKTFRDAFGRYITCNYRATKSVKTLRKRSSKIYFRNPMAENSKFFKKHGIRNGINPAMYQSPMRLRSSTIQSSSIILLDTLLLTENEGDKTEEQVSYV
Chain of h5-HT2A (P28223 whole entry): as the sequence (P28223 whole entry) above

Compound: O=C1Nc2ccc(Cl)cc2[C@@](C#CC2CC2)(C(F)(F)F)O1 [efavirenz, (4S)-6-chloro-4-(2-cyclopropylethynyl)-4-(trifluoromethyl)-2,4-dihydro-1H-3,1-benzoxazin-2-one]
- novel open field locomotor activity [1]: dose-dependently depressed novel open field locomotor activity
- effect on 5-HT agonist effect (5-HT6 receptor [2]): completely overcame the agonist effect of 5-HT but also reduced activity to below basal levels
- effect on basal cAMP (5-HT6 receptor [2]): lowers the basal levels of cAMP
- interaction (radioligand displacement) (h5-HT1A): less pronounced or no detectable interaction
- effect on serotonin reuptake [3]: blocks reuptake of serotonin
- concentration completely suppressing the 5-HT agonist effect (5-HT2C receptor [4]; 0.03 nM 5-HT (EC50)): ≥ 60 µM
- concentration inhibiting the 5-HT agonist effect (5-HT2C receptor [4]; 0.03 nM 5-HT (EC50)): ≥ 10 µM
- concentration with no significant effect on 5-HT responses (5-HT2C receptor [4]; 0.03 nM 5-HT (EC50)): up to 3 μM
- agonist activity (5-HT2C receptor [4]): did not have any agonist activity
- change in cAMP levels (untransfected HeLa cells): no significant changes in cAMP levels
- incidence of hallucinations ([5]; large clinical studies, 1008 patients): 1.2%
- frequency of hallucinations ([5]; three clinical studies, 114–197 patients each): 6–31%
- interaction (NMDA receptors): did not have significant interactions
- interaction (radioligand displacement) (gp5-HT4): less pronounced or no detectable interaction
- inhibition of agonist responses (5-HT, TCB-2, α-Me-5HT) (5-HT2A receptor [6]; 30 μM antagonist): significant inhibition
- Schild plot slope (5-HT2A receptor [6]; (±)-DOI as agonist): 1.06 ± 0.054
- Schild plot slope (5-HT2A receptor [6]; LSD as agonist): 1.2 ± 0.16
- transporter function (DAT): functioned as a DAT and SERT blocker
- stimulation of Gq-coupling alone (M1 muscarinic receptor): fails to stimulate
- concentration suppressing the carbachol Gq response (M1 muscarinic receptor; EC50 concentration of carbachol): ≥ 10 µM
- Ki (5-HT6 receptor [7]): 2200 ± 270 nM
- pseudo Hill slope (5-HT6 receptor [7]; competition binding): −1.36 ± −0.14
- displacement of specifically bound radioligand (h5-HT2C): ≥ 75%
- brain levels relative to plasma levels [8]: exceed 4.6 times
- concentration partially suppressing ACh mediated activation (M3 muscarinic receptor; EC50 concentration of acetylcholine): ≥ 10 µM
- extent of block of ACh response (M3 muscarinic receptor; highest concentration that could be tested): unable to produce a complete block
- effect alone on intracellular Ca2+ levels (M3 muscarinic receptor; untransfected HEK293 cells): had no effect
- decrease of MAO-A activity (MAO-A): 36 ± 1.7%
- bound to plasma proteins [9]: approximately 99.8%
- effect on GABA-mediated chloride currents (GABAA receptor): potentiated GABA-mediated chloride currents
- displacement of specifically bound radioligand (h5-HT2A): ≥ 75%
- Ki (5-HT2A receptor [10]; affinity (Ki), [3H]MSP competition): 4.4 µM and 4.37 µM
- pseudo Hill slope (5-HT2A receptor [10]; competition binding): −1.39 ± −0.18
- substitution in rats trained to discriminate LSD from saline [11]: partially substituted for LSD
- displacement of specifically bound radioligand (h5-HT2B): greater than 50%
- estimated concentration in brain tissue ([12]; 44 nM ÷ 0.002): ~22 µM
- corresponding brain concentrations ([12]; plasma >2.74 μg/mL, assuming rat brain accumulation 4.6): > 40 µM
- Ki (5-HT2C receptor [13]): 1700 ± 280 nM
- pseudo Hill slope (5-HT2C receptor [13]; competition binding): −1.22 ± −0.18
- mean concentration in CSF ([14]; across studies): approximately 44 nM
- CSF levels as % of plasma concentrations [14]: 0.52%
- decrease in receptor density (Bmax) (5-HT2A receptor [15]): 52%
- antagonism of 100 nM 5-HT calcium response (5-HT2A receptor [16]; cells pretreated 3 days with 30 μM 5-HT): 49%
- antagonism of 100 nM 5-HT calcium response (5-HT2A receptor [16]; cells pretreated 3 days with 30 μM efavirenz): 49%
- antagonism of 100 nM 5-HT calcium response (5-HT2A receptor [16]; cells pretreated 3 days with DMSO vehicle): 48%
- reduction of the 100 μM maximal 5-HT response (5-HT2A receptor [16]; 3 day exposure to 30 μM, vs 3 day vehicle): 81%
- interaction (radioligand displacement) (h5-HT7): less pronounced or no detectable interaction
- effect on (−)-epinephrine stimulated cAMP response [17]: failed to significantly modulate
- interaction (muscarinic receptors): did not have high affinity interactions
